Test system: liver slices
Test: Effect of acetaminophen on liver oxygen consumption rate (OCR) in microperifusion prototype
Assay type: cell-based, rat
Conditions: two 1 mg liver slices per channel, after about three hours baseline, triplicate channels

CC(=O)Nc1ccc(O)cc1 [acetaminophen]
OCR lowered (6 mM acetaminophen): 40%
OCR lowered (15 mM acetaminophen): 60%
